pIC50: −log10 of the molar value.
How the values were obtained:
B16-OVA melanoma = assay: Adoptive cell transfer of compound-treated OT1 CD8 T cells in B16-OVA melanoma tumor model; assay type: in vivo, mouse
Description: Activated CD45.1+OT-1 splenocytes were culture in vitro for 7 days as described above, collected and purified on a Ficoll gradient, allowing to separate dead and live splenocytes. Live splenocytes were counted with Trypan blue stain 0.4%. 100′000 or 2′000′000 live splenocytes were transferred into CD45.2+ host mice by tail vein injection.
B16-OVA cells were cultured in DMEM (GIBCO) with 10% FBS and 1% P/S before their subcutaneous injection into the mouse flank. Each mouse received 100′000 cells in a volume of 200 μl of PBS. 6 days after B16-OVA cells injection, tumors were measured, mice were randomized and lymphodepleted by irradiation (5 Gray). 7 days after B16-Ova injection, mice were adoptively transferred with the ACT protocol described previously. Following the ACT, mice received a vaccination of CpG (50 μg/mouse) and N4 Ova peptide (10 μg/mouse) diluted in PBS to obtain a total volume of 100 μl/mouse, injected subcutaneously at the tail base. Tumors were measured every 2 days and the tumor volume was calculated according to the formula: V=π×[d2×D]/6, where d is the minor tumor axis and D is the major tumor axis. At day 26 days post-tumor engraftment, tumors and spleens were dissected were then stained for flow cytometry analyses.
Briefly, 105 ovalbumin-expressing B16 melanoma cells were injected subcutaneously in 6-week-old mice. At day 6 post-engraftment, when a palpable tumor was present, mice were irradiated with 5Gy. The next day 105 Compound 45- or DMSO-treated OT1 cells were intravenously injected, followed by a subcutaneous vaccination of 50 μg CpG and 10 μg N4 Ova peptide (FIG. 2A). […] When analysing the blood 9 days post-adoptive cell transfer, one could observe an increase in number of transferred cells when treated in vitro with Compound 45 as compared to DMSO (FIG. 2D). The phenotype of the Compound 45-treated cells was biased towards memory, as there was a reduced percentage of short-lived effector T cells (FIG. 2E) and an increase in memory-precursor effector T cells and cells with a central memory phenotype (FIGS. 2F and 2G). When analysing the tumor upon dissection, more Compound 45-treated T cells were infiltrating the tumor (FIG. 2H).
In order to observe a stronger anti-tumor response of the transferred OT1 T cells, the previous experiment was repeated by transferring 2×10^6 DMSO- or Compound 45-treated OT1 T cells, instead of only 10^5 (FIG. 3A). […] When analysing the tumor upon dissection, no difference in T cell infiltration was observed (FIG. 3D). […] There was however no difference in terminally exhausted or progenitor exhausted T cells (FIGS. 3F and 3G). […] There was no difference in CD107a expression (FIG. 3O).

[1] = molecular target: T1, mitochondrial pyruvate carrier (MPC) (Homo sapiens, UniProt O95563+Q9Y5U8); assay: Bret IC50, inhibitory activity against MPC; assay type: cell-based
T1 sequence (Q9Y5U8 1-109): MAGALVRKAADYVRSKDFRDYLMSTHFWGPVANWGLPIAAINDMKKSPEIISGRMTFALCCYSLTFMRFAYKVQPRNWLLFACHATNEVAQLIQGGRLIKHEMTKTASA
T1 sequence (O95563 1-127): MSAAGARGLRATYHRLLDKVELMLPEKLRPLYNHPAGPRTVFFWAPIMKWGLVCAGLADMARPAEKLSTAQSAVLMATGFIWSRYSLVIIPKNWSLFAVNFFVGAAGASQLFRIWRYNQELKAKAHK
From the text: The inhibition of mitochondrial pyruvate carrier (MPC) by compounds of the invention have been tested as follows and their inhibitory activity was expressed as IC50s values.
Table 2 below presents the IC50s of the compounds of the invention.

## O=c1cc(Cc2ccccc2)n2c(SCc3c(F)cccc3Cl)nnc2[nH]1 [Compound 45, 5-benzyl-3-[(2-chloro-6-fluorobenzyl)sulfanyl][1,2,4]triazolo[4,3-a]pyrimidin-7 (8H)-one]
B16-OVA melanoma; 2×10^6 cells, spleen (FIG. 3H)
  number of treated T cells in the spleen: decreased
B16-OVA melanoma; 2×10^6 cells, spleen (FIG. 3I)
  central memory phenotype in the spleen: increased
B16-OVA melanoma; 2×10^6 cells, spleen (FIG. 3J)
  TCF1 expression in the spleen: trend towards increased
B16-OVA melanoma; 2×10^6 cells, tumor (FIG. 3F)
  terminally exhausted T cells: no difference
B16-OVA melanoma; 2×10^6 cells, tumor (FIG. 3G)
  progenitor exhausted T cells: no difference
B16-OVA melanoma; 2×10^6 cells, tumor cells restimulated with OVA peptide (FIG. 3K)
  IFNy expression: did not show difference
B16-OVA melanoma; 2×10^6 cells, tumor cells restimulated with OVA peptide (FIG. 3L)
  TNF expression: did not show difference
B16-OVA melanoma; 2×10^6 cells, tumor cells restimulated with OVA peptide (FIG. 3M)
  IL2 expression: did not show difference
B16-OVA melanoma; 2×10^6 cells, tumor cells restimulated with OVA peptide (FIG. 3N)
  Granzyme B expression: increased
B16-OVA melanoma; 2×10^6 cells, tumor cells restimulated with OVA peptide (FIG. 3O)
  CD107a expression: no difference
B16-OVA melanoma; 2×10^6 cells, tumor upon dissection (FIG. 3D)
  T cell infiltration in tumor: no difference
B16-OVA melanoma; 2×10^6 cells, vs DMSO (FIG. 3E)
  exhausted tumor infiltrating T cells: more exhausted
B16-OVA melanoma; 2×10^6 treated OT1 cells transferred, vs DMSO (FIG. 3B)
  B16 tumor growth: strongly reduced
B16-OVA melanoma; 2×10^6 treated OT1 cells, vs DMSO (FIG. 3C)
  B16 tumor weight: strongly reduced
B16-OVA melanoma; 10^5 cells, blood 9 days post-ACT (FIG. 2E)
  percentage of short-lived effector T cells: reduced
B16-OVA melanoma; 10^5 cells, blood 9 days post-ACT (FIG. 2F)
  memory-precursor effector T cells: increase
B16-OVA melanoma; 10^5 cells, blood 9 days post-ACT (FIG. 2G)
  cells with a central memory phenotype: increase
B16-OVA melanoma; 10^5 cells, blood 9 days post-ACT, vs DMSO (FIG. 2D)
  number of transferred cells in blood: increase
B16-OVA melanoma; 10^5 cells, spleen (FIG. 2L)
  number of treated T cells in the spleen: increased
B16-OVA melanoma; 10^5 cells, spleen (FIG. 2M)
  central memory phenotype in the spleen: increased
B16-OVA melanoma; 10^5 cells, spleen (FIG. 2N)
  TCF1 expression in the spleen: not significantly altered
B16-OVA melanoma; 10^5 cells, tumor cells restimulated with OVA peptide (FIG. 2O)
  IFNy expression: did not show a significant increase
B16-OVA melanoma; 10^5 cells, tumor cells restimulated with OVA peptide (FIG. 2P)
  TNF expression: did not show a significant increase
B16-OVA melanoma; 10^5 cells, tumor cells restimulated with OVA peptide (FIG. 2Q)
  IL2 expression: did not show a significant increase
B16-OVA melanoma; 10^5 cells, tumor cells restimulated with OVA peptide (FIG. 2R)
  Granzyme B expression: did not show a significant increase
B16-OVA melanoma; 10^5 cells, tumor cells restimulated with OVA peptide (FIG. 2S)
  expression of CD107a (LAMP1): increased
B16-OVA melanoma; 10^5 cells, tumor upon dissection (FIG. 2H)
  treated T cells infiltrating the tumor: more
B16-OVA melanoma; 10^5 cells, vs DMSO (FIG. 2I)
  exhausted tumor infiltrating T cells: not significantly more or less exhausted
B16-OVA melanoma; 10^5 treated OT1 cells transferred, vs DMSO (FIG. 2B)
  B16 tumor growth: reduced
B16-OVA melanoma; 10^5 treated OT1 cells, vs DMSO (FIG. 2C)
  Tumor weight: not significantly reduced
[1]
  pIC50: 6.93

Source: patent publication US20240360143A1, “[1,2,4]TRIAZOLO[4,3-A]PYRIMIDIN-7(8H)-ONE AS MITOCHONDRIAL PYRUVATE CARRIER INHIBITORS FOR USE IN THE TREATMENT OF CANCER” (MPC THERAPEUTICS SA, priority 2021, published 2024)
